Reference: US10251874B2, “Crystalline forms of a JAK inhibitor compound” (THERAVANCE BIOPHARMA R&D IP, LLC, priority 2017, dated 2019)
Like-named read-outs stand apart in the source and are kept apart here.

Settings: for sorption/desorption profile (hygroscopicity): DMS, two cycles of sorption and desorption, 25° C.
Experimental: Dynamic moisture sorption (DMS) measurement was performed using a VTI atmospheric microbalance, SGA-100 system (VTI Corp., Hialeah, FL 33016). A weighed sample was used and the humidity was lowest possible value (close to 0% RH) at the start of the analysis. The DMS analysis consisted of an initial drying step (˜0%RH) for 120 minutes, followed by two cycles of sorption and desorption with a scan rate of 5% RH/step over the humidity range of 5% RH to 90% RH. The DMS run was performed isothermally at 25° C.

| SMILES | sorption/desorption profile (hygroscopicity) | total moisture uptake (relative humidity between about 5% and about 90% at room temperature) | total moisture uptake (relative humidity between about 30% and about 90% at room temperature) |
| --- | --- | --- | --- |
| CCc1cc(O)c(F)cc1-c1ccc2c(-c3nc4c([nH]3)CCN(C3CCN(C)CC3)C4)n[nH]c2c1.O.O=C(O)CCC(=O)O [succinate hydrate, Crystalline Succinate Hydrate of 5-ethyl-2-fluoro-4-(3-(5-(1-methylpiperidin-4-yl)-4,5,6,7-tetrahydro-1H-imidazo[4,5-c]pyridin-2-yl)-1H-indazol-6-yl)phenol] | slight propensity for hygroscopicity | about 2% |  |
| CCc1cc(O)c(F)cc1-c1ccc2c(-c3nc4c([nH]3)CCN(C3CCN(C)CC3)C4)n[nH]c2c1.O.O=C(O)C(=O)O [oxalate hydrate, Crystalline Oxalate Hydrate of 5-ethyl-2-fluoro-4-(3-(5-(1-methylpiperidin-4-yl)-4,5,6,7-tetrahydro-1H-imidazo[4,5-c]pyridin-2-yl)-1H-indazol-6-yl)phenol] | slight propensity for hygroscopicity |  | about 1% |
